PubChem BioAssay AID1963422 (Molecular Pharmacology Branch, DTP, NCI, 2024)

System: 463943-066-T-J2-PDC complex spheroid growth
Assay: Anticancer human tumor 463943-066-T-J2-PDC patient-derived colon adenocarcinoma cell line growth inhibition [Asc]
Conditions: for IC50: curve of first compound; for viability, T/C: stronger effect = lower value
How it was run: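 Tumor cells were grown as multicellular spheroids with stromal HUVEC and mesenchymal stem cells and treated singly or in combination. Concentrations fell in half-log steps from the clinical Cmax, or from 10 microM where none was known.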
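Also: compound exposure lasted 7 days.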
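For viability, T/C in this document: 100% = DMSO vehicle control wells.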

In the case of `NC(=O)C(=Cn1cnc(-c2cc(C(F)(F)F)cc(C(F)(F)F)c2)n1)c1cncnc1` + CCN1C(C(=O)NC23CCC(C(=O)O)(CC2)CC3)C(c2cccc(Cl)c2F)C2(C(=O)Nc3cc(Cl)ccc32)C12CCCCC2, the IC50 (second compound 0.00949 µM) is reported as over 300 nM, the IC50 (second compound 0.03 µM) is reported as over 300 nM and the IC50 (second compound 0.0949 µM) is reported as over 300 nM. The IC50 (second compound 0.3 µM) was 156 nM, the IC50 (second compound 0.949 µM) was 32.6 nM and the IC50 (second compound 3 µM) was 15.1 nM. It also gave a viability, T/C (second compound 0.00949 µM, first compound 0.000949 µM) of 94.2%, a viability, T/C (second compound 0.00949 µM, first compound 0.003 µM) of 91.3% and a viability, T/C (second compound 0.00949 µM, first compound 0.00949 µM) of 82.5%. For the same compound, the viability, T/C (second compound 0.00949 µM, first compound 0.03 µM) was 87.4%, the viability, T/C (second compound 0.00949 µM, first compound 0.0949 µM) was 81% and the viability, T/C (second compound 0.00949 µM, first compound 0.3 µM) was 63.7%. The viability, T/C (second compound 0.03 µM, first compound 0.000949 µM) was 99.5%, the viability, T/C (second compound 0.03 µM, first compound 0.003 µM) was 92.6% and the viability, T/C (second compound 0.03 µM, first compound 0.00949 µM) was 81%. It also gave a viability, T/C (second compound 0.03 µM, first compound 0.03 µM) of 84.9%, a viability, T/C (second compound 0.03 µM, first compound 0.0949 µM) of 78.8% and a viability, T/C (second compound 0.03 µM, first compound 0.3 µM) of 62.5%. The viability, T/C (second compound 0.0949 µM, first compound 0.000949 µM) was 86.8%, the viability, T/C (second compound 0.0949 µM, first compound 0.003 µM) was 84.9% and the viability, T/C (second compound 0.0949 µM, first compound 0.00949 µM) was 80.7%. The viability, T/C (second compound 0.0949 µM, first compound 0.03 µM) was 78.6%, the viability, T/C (second compound 0.0949 µM, first compound 0.0949 µM) was 70.6% and the viability, T/C (second compound 0.0949 µM, first compound 0.3 µM) was 54.5%. It also gave a viability, T/C (second compound 0.3 µM, first compound 0.000949 µM) of 78.7%, a viability, T/C (second compound 0.3 µM, first compound 0.003 µM) of 75.4% and a viability, T/C (second compound 0.3 µM, first compound 0.00949 µM) of 68.7%. The viability, T/C (second compound 0.3 µM, first compound 0.03 µM) was 67.5%, the viability, T/C (second compound 0.3 µM, first compound 0.0949 µM) was 51.2% and the viability, T/C (second compound 0.3 µM, first compound 0.3 µM) was 44.5%. The viability, T/C (second compound 0.949 µM, first compound 0.000949 µM) was 68.1%, the viability, T/C (second compound 0.949 µM, first compound 0.003 µM) was 67.3% and the viability, T/C (second compound 0.949 µM, first compound 0.00949 µM) was 61%. It also gave a viability, T/C (second compound 0.949 µM, first compound 0.03 µM) of 52.1%, a viability, T/C (second compound 0.949 µM, first compound 0.0949 µM) of 37.8% and a viability, T/C (second compound 0.949 µM, first compound 0.3 µM) of 34.8%. For the same compound, the viability, T/C (second compound 3 µM, first compound 0.000949 µM) was 66%, the viability, T/C (second compound 3 µM, first compound 0.003 µM) was 63.6% and the viability, T/C (second compound 3 µM, first compound 0.00949 µM) was 56.9%. The viability, T/C (second compound 3 µM, first compound 0.03 µM) was 40%, the viability, T/C (second compound 3 µM, first compound 0.0949 µM) was 30.4% and the viability, T/C (second compound 3 µM, first compound 0.3 µM) was 29%.

`NC1CCC(NC2CC2c2ccccc2)CC1` (centres undefined) + CCN1C(C(=O)NC23CCC(C(=O)O)(CC2)CC3)C(c2cccc(Cl)c2F)C2(C(=O)Nc3cc(Cl)ccc32)C12CCCCC2 showed an IC50 (second compound 0.00949 µM) of over 100 nM, an IC50 (second compound 0.03 µM) of over 100 nM and an IC50 (second compound 0.0949 µM) of over 100 nM. For the same compound, the IC50 (second compound 0.3 µM) was over 100 nM, the IC50 (second compound 0.949 µM) was over 100 nM and the IC50 (second compound 3 µM) was over 100 nM. It also gave a viability, T/C (second compound 0.00949 µM, first compound 0.000316 µM) of 89.9%, a viability, T/C (second compound 0.00949 µM, first compound 0.001 µM) of 76.8% and a viability, T/C (second compound 0.00949 µM, first compound 0.00316 µM) of 87.3%. The viability, T/C (second compound 0.00949 µM, first compound 0.01 µM) was 91.6%, the viability, T/C (second compound 0.00949 µM, first compound 0.0316 µM) was 87.1% and the viability, T/C (second compound 0.00949 µM, first compound 0.1 µM) was 89%. It also gave a viability, T/C (second compound 0.03 µM, first compound 0.000316 µM) of 88.8%, a viability, T/C (second compound 0.03 µM, first compound 0.001 µM) of 79.3% and a viability, T/C (second compound 0.03 µM, first compound 0.00316 µM) of 83.1%. It also gave a viability, T/C (second compound 0.03 µM, first compound 0.01 µM) of 82.5%, a viability, T/C (second compound 0.03 µM, first compound 0.0316 µM) of 86.2% and a viability, T/C (second compound 0.03 µM, first compound 0.1 µM) of 75.3%. The viability, T/C (second compound 0.0949 µM, first compound 0.000316 µM) was 84.6%, the viability, T/C (second compound 0.0949 µM, first compound 0.001 µM) was 80.8% and the viability, T/C (second compound 0.0949 µM, first compound 0.00316 µM) was 77.1%. The viability, T/C (second compound 0.0949 µM, first compound 0.01 µM) was 82.8%, the viability, T/C (second compound 0.0949 µM, first compound 0.0316 µM) was 82.4% and the viability, T/C (second compound 0.0949 µM, first compound 0.1 µM) was 75.4%. For the same compound, the viability, T/C (second compound 0.3 µM, first compound 0.000316 µM) was 78.2%, the viability, T/C (second compound 0.3 µM, first compound 0.001 µM) was 77.3% and the viability, T/C (second compound 0.3 µM, first compound 0.00316 µM) was 71.5%. The viability, T/C (second compound 0.3 µM, first compound 0.01 µM) was 79%, the viability, T/C (second compound 0.3 µM, first compound 0.0316 µM) was 74.7% and the viability, T/C (second compound 0.3 µM, first compound 0.1 µM) was 71.9%. It also gave a viability, T/C (second compound 0.949 µM, first compound 0.000316 µM) of 67.7%, a viability, T/C (second compound 0.949 µM, first compound 0.001 µM) of 71.3% and a viability, T/C (second compound 0.949 µM, first compound 0.00316 µM) of 66.7%. The viability, T/C (second compound 0.949 µM, first compound 0.01 µM) was 67.2%, the viability, T/C (second compound 0.949 µM, first compound 0.0316 µM) was 71.5% and the viability, T/C (second compound 0.949 µM, first compound 0.1 µM) was 65.8%. For the same compound, the viability, T/C (second compound 3 µM, first compound 0.000316 µM) was 69.4%, the viability, T/C (second compound 3 µM, first compound 0.001 µM) was 68% and the viability, T/C (second compound 3 µM, first compound 0.00316 µM) was 66.5%. For the same compound, the viability, T/C (second compound 3 µM, first compound 0.01 µM) was 65.8%, the viability, T/C (second compound 3 µM, first compound 0.0316 µM) was 71% and the viability, T/C (second compound 3 µM, first compound 0.1 µM) was 64.3%.
